# Patent publication US6011000A, “Compositions for the treatment of blood disorders” (priority 1995, dated 2000)
# Read-outs that look alike come from different tables or passages of the source.
# What was measured:
# [1] = test system: fetal globin (cultured erythroid progenitor cells); settings: cited from earlier work
# [2] = test system: anemic baboon; experiment: In vivo reticulocyte proliferation, globin expression and blood counts in anemic (phlebotomized) baboons
# Protocol: Experiments were performed to determine if administration of the chemical compositions could induce fetal globin gene expression in an in vivo model similar to humans (S. P. Perrine et al., Brit. J. Haematol. 88:555-61, 1994). Briefly, chemicals were prepared as sterile pharmaceutical solutions in pH adjusted sterile water. A variety of chemical compositions were administered sequentially to some baboons. After administration of one compound, a wash-out period with no compound administration was maintained until reticulocytes returned to base line prior to administration of the next compound. This was done, at least partly, to compare the magnitude of response which occurred within the same individual animal to different compounds.
# Briefly, juvenile female baboons (2 years old) were catheterized with arterial and venous catheters and phlebotomized gradually every day to maintain a moderate anemia of 7.0 to 7.5 grams hemoglobin/dl. Fetal reticulocytes, the newly produced red blood cells containing fetal globin, were assayed using a monoclonal antibody against fetal globin (HbF) as described by G. Dover et al. (Blood 67:735-38, 1986). Briefly, blood was stained with two antibodies, one specific for reticulocytes and another against fetal globin protein. The amount of antibody bound cells was determined by FACS analysis. Globin chain synthesis was assayed as described by J. B. Clegg et al. (J. Mol. Biol. 19:91-108, 1966). Briefly, reticulocytes were radio-labeled with ^3 H-leucine which was incorporated in equal proportions into actively synthesized globin chains. After incubation in leucine-free media, cells were washed, and globin proteins were separated and purified by column chromatography. Radioactivity incorporated into each peak is compared and the ratios of gamma to gamma plus beta globin calculated. Each animal served as its own control with baseline monitoring assays performed for 4-6 weeks before any drug was administered. Phlebotomy was continued daily, so that peripheral HbF levels in the animals were not considered to be accurate over the short treatment time-frames and were not monitored. Safety monitoring was performed by frequent physical examinations, quantitation of food eaten, activity and frequent chemistry and hematology monitoring. Complete blood counts were assayed before, during and after treatment. Results presented were not adjusted to account for the daily phlebotomy.
# [3] = test system: fetal globin mRNA (human erythroleukemia cells); experiment: Fetal globin mRNA in erythroleukemia cells (primer extension); assay type: cell-based
# Protocol: Compounds were tested for increased expression of the human globin genes in human erythroid cells. In addition, as the cell line being tested is a tumor cell line, the assay determines if differentiation, a growth inhibitory effect on cancer cells, is induced by the compounds tested. Human erythroleukemia cells were cultured in RPMI media with 10% fetal calf serum alone or with treatment with various compounds for 4 days. Globin MRNA was quantitated by primer extension analysis. Fetal globin mRNA was compared to the amount of fetal globin mRNA produced in untreated cells during the same culture period. The quantitation was expressed as a percent of alpha globin MRNA which was constant. Results are expressed proportional to α-globin mRNA (Table 3).
# [4] = test system: fetal globin (gamma globin); experiment: Fetal globin expression in erythroid progenitor cells from cord blood; assay type: cell-based, human; settings: for Gamma/(Gamma + Beta): Exp. B, 12-13 days, untreated 25.4%, 27.5%
# Protocol: Compositions were tested for activity in inducing fetal globin expression and protein production in erythroid progenitor cells cultured from human cord blood and analyzed as described by S. P. Perrine et al. (Blood 74: 454-60, 1989). Briefly, mononuclear cells were cultured in IMDM with 30% fetal calf serum and 2 units erythropoietin per ml to induce erythroid differentiation. Colonies were harvested on day 12-13, incubated with radio-labelled (^3 H) leucine, and further incubated in leucine-free media, still in the presence of compounds, overnight. Globin composition in the erythroid cells was analyzed by laser densitometry of electrophoretically separated globin chains stained with Coomassie blue, and by autoradiography. Treated cells were incubated for 12-13 days (Table 2, Experiments A and B) or overnight (Table 2, Experiment C) in the presence of the indicated compounds and compared to untreated control cells cultured from the same human subject.
# [5] = test system: fetal globin production; settings: cited from earlier work
# [6] = test system: proximal promoter of the gamma globin gene (K562 cells); experiment: Gamma globin promoter-neomycin transfection (61 bp proximal promoter), G418-resistant colonies; assay type: cell-based, human; settings: 1 mM, 8 weeks in G418
# Protocol: Gamma globin promoter-neomycin transfection experiments were performed to determine if compounds act by inducing an increase in activity from the proximal promoter of the gamma globin gene. Constructs containing 61 bp of the proximal gamma globin promoter were linked to the reporter gene for neomycin phosphotransferase (NEO) and transfected into permissive K562 cells by electroporation. After 18 hours, transfected cells were passed at 10^3 cells per well into RPMI media containing G418 (neomycin), which kills all mammalian cells unless the gene for NEO is expressed. Phenoxyacetic acid and thiophenoxyacetic acid were added to some of the cells plated into the RPMI/G418 media at concentrations of 1 mM. Cultures were incubated for 8 weeks with media changes performed as needed. Colonies which survived and grew in the presence of G418 were scored and the number of such colonies was compared to those generated when the cells were plated into G418 media without the test compounds. […] There was a greater than 6-fold (>600%) increase in proportions of colonies surviving the presence of phenoxyacetic acid (6/24 wells) and a three-fold (300%) increase in survival in the presence of thiophenoxyacetic acid (3/24 wells).
# [7] = test system: system A transport (K562 cells and nucleated erythroblasts from fetal liver); experiment: Effects on system A amino acid transport (3H-MAIB uptake); assay type: cell-based, human
# Protocol: Inhibition of nutrient uptake is undesirable for treatment of anemias. Methyl aminoisobutyric acid (MAIB) labeled with tritium (^3 H) is normally taken up by system A amino acid transport. Cold (unlabeled) compounds were added to cultures containing ^3 H-MAIB and incubated for 1 hour. Cells were harvested and the amount of ^3 H taken up by cells was quantitated by scintillation counting.
compound,measurement,setting,value
O=C(O)CCCc1ccccc1 [4-phenyl butyrate],fetal globin expressing reticulocyte proliferation,[1],decrease fetal globin expressing reticulocyte proliferation
same,relative proportions of fetal globin per cell,[1],increase relative proportions of fetal globin per cell
"CCCC(=O)OCC(O)CO (stereo not shown) [MB, monobutyrin]",increase in fetal reticulocytes above basal levels,"[2]; 500 to 2,000 mg/kg i.v. daily, 4 days",220%
same,Fetal reticulocytes,"[2]; 500 to 2,000 mg/kg i.v. daily, 4 days, from 12%",27%
same,induction of fetal globin mRNA,[3],significantly increased the induction of fetal globin MRNA
same,Gamma Globin mRNA (increase),"[3]; 1.0 mM, 4 days",26%
same,Gamma/Alpha,"[3]; 1.0 mM, 4 days, untreated 0.46",0.73
"CC(CO)C(N)=O (stereo not shown) [MHPP, 2 methyl-3-hydroxypropionamide]",Gamma/(Gamma + Beta),[4]; 0.05 mM,29.8%
same,Gamma/(Gamma + Beta),[4]; 1.0 mM,24.0%
same,expression of fetal globin,[4]; concentrations above 0.25 mM (FIG. 4),decreased the expression of fetal globin
same,fetal globin expression,[4]; concentrations below 0.25 mM,increased fetal globin expression
CC(=O)Oc1ccccc1 [Phenyl acetate],fetal globin expressing reticulocyte proliferation,[1],decrease fetal globin expressing reticulocyte proliferation
same,relative proportions of fetal globin per cell,[1],increase relative proportions of fetal globin per cell
CCCC(=O)[O-].[Na+] [sodium butyrate],stimulation of fetal globin production,[5],effective in stimulating fetal globin production
O=C(O)CSc1ccccc1 [thiophenoxyacetic acid],increase in proportions of colonies surviving,[6],three-fold
same,colonies surviving,[6]; none of 24 wells without compound,3/24
same,activation at 1000 µM,"[6]; Homo sapiens, K562, 1344 h, read-out: increase in proportions of colonies surviving",300%
CCCC(=O)OCC(COC(=O)CCC)OC(=O)CCC [tributyrin],Gamma globin expression,"[2]; 500 to 750 mg/kg per day i.v., 3 days, from 0%",about 2.2 % of total non-alpha globin expression
same,Fetal reticulocytes,"[2]; 500 to 750 mg/kg per day i.v., 3 days, from 10%",14%
CCC(N)C(=O)O (stereo not drawn) [α-amino-n-butyric acid],stimulation of fetal globin production,[5],effective in stimulating fetal globin production
CC(=Cc1ccccc1)C(=O)O [α-methyl cinnamic acid],system A (neutral) amino acid transport,[7],do not significantly alter system A transport of amino acids
CC(Cc1ccccc1)C(=O)O (stereo not drawn) [α-methyl hydrocinnamic acid],production of blood cell types,[2]; baboons,stimulated production of many different cell types
same,red blood cell count,"[2]; first baboon, infusion 500-1,000 mg/kg, 5 days, from 2.28",3.53 10^6 red blood cells per microliter
same,white blood cell count,"[2]; first baboon, infusion 500-1,000 mg/kg, 5 days, from 4.1",11.5
same,total number of reticulocytes,"[2]; first baboon, infusion 500-1,000 mg/kg, 5 days, from 5.6%",11%
same,total hemoglobin after treatment,"[2]; first baboon, infusion 500-1,000 mg/kg, 5 days, from 6.4",7.9 grams/dl
same,packed red blood cell volume,"[2]; first baboon, infusion 500-1,000 mg/kg, 5 days, from 19.5%",31.2 % of total blood volume
same,platelet count,"[2]; first baboon, infusion 500-1,000 mg/kg, 5 days, from 26.7",46.8 10^4 cells/μl
same,rise in total hemoglobin,"[2]; first baboon, infusion 500-1,000 mg/kg, 5 days, over 3 days",1.5 grams/dl
same,rise in total hemoglobin,"[2]; second baboon, 500-700 mg/kg, 5 days",1.4 grams
same,Red blood cell counts,"[2]; second baboon, 500-700 mg/kg, 5 days, from 2.3×10^6",2.82×10^6
same,Total hemoglobin,"[2]; second baboon, 500-700 mg/kg, 5 days, from 4.6",6.0 g/dL
same,packed red blood cell volume,"[2]; second baboon, 500-700 mg/kg, 5 days, from 14.5%",20.2%
same,White blood cell counts (maximum),"[2]; second baboon, 500-700 mg/kg, 5 days, from 8,700","14,300"
same,platelet counts (high),"[2]; second baboon, 500-700 mg/kg, 5 days, from 328,000","486,000"
same,Total fetal globin synthesis,"[2]; second baboon, 500-700 mg/kg, after 5 days, from 4.0%",10.8%
same,adverse effects,"[2]; third baboon, same dose, 5 days",No adverse affects were observed
same,Fetal globin protein synthesis,"[2]; third baboon, same dose, 5 days, from 0%",6.2 % of non-alpha globin
same,fetal hemoglobin producing reticulocytes,"[2]; third baboon, same dose, after 5 days (FIG. 8), from 0%",10%
same,system A (neutral) amino acid transport,"[7]; 1 hour, 3H-MAIB (FIG. 12)",caused no significant inhibition and actually increased uptake of nutrients into cells
